Key:
[1] = tested on: Glomerella lagenarium (Colletotrichum lagenarium); assay: Fungicidal activity against Glomerella lagenarium (Colletotrichum lagenarium) liquid culture / cucumber / preventative (anthracnose); assay type: cell-based; settings: Colletotrichum orbiculare; 20 ppm in the applied formulation; liquid culture (PDB), inhibition of growth measured photometrically 3 to 4 days after application; compared to untreated; read-out: disease control
Description: Mycelia fragments or conidia suspensions of a fungus prepared either freshly from liquid cultures of the fungus or from cryogenic storage, are directly mixed into nutrient broth. DMSO solutions of the test compound (max. 10 mg/mL) are diluted with 0.025% Tween20 by a factor of 50 and 10 μL of this solution is pipetted into a microtiter plate (96-well format). The nutrient broth containing the fungal spores/mycelia fragments is then added to give an end concentration of the tested compound. The test plates are incubated in the dark at 24° C. and 96% relative humidity. The inhibition of fungal growth is determined photometrically after 2 to 7 days, depending on the pathosystem, and percent antifungal activity relative to the untreated check is calculated. Conidia of the fungus from cryogenic storage are directly mixed into nutrient broth (PDB—potato dextrose broth). After placing a (DMSO) solution of test compound into a microtiter plate (96-well format), the nutrient broth containing the fungal spores is added. The test plates are incubated at 24° C. and the inhibition of growth is measured photometrically 3 to 4 days after application. The following compounds at 20 ppm in the applied formulation give at least 80% disease control in this test when compared to untreated control under the same conditions, which show extensive disease development.

[2] = tested on: Puccinia recondita f. Sp. Tritici; assay: Fungicidal activity against Puccinia recondita f. sp. tritici / wheat / leaf disc curative (brown rust); assay type: in vivo; settings: foliar, 24 h, 200 ppm in the applied formulation, wheat leaf segments cv. Kanzler, curative (applied 1 day after inoculation), compared to untreated, read-out: disease control
Description: Leaf disks or leaf segments of various plant species are cut from plants grown in a greenhouse. The cut leaf disks or segments are placed in multiwell plates (24-well format) onto water agar. The leaf disks are sprayed with a test solution before (preventative) or after (curative) inoculation. Compounds to be tested are prepared as DMSO solutions (max. 10 mg/mL) which are diluted to the appropriate concentration with 0.025% Tween20 just before spraying. The inoculated leaf disks or segments are incubated under defined conditions (temperature, relative humidity, light, etc.) according to the respective test system. A single evaluation of disease level is carried out 3 to 14 days after inoculation, depending on the pathosystem. Percent disease control relative to the untreated check leaf disks or segments is then calculated. Wheat leaf segments cv. Kanzler are placed on agar in multiwell plates (24-well format). The leaf segments are then inoculated with a spore suspension of the fungus. Plates were stored in darkness at 19C and 75% relative humidity. The formulated test compound diluted in water was applied 1 day after inoculation. The leaf segments were incubated at 19° C. and 75% relative humidity under a light regime of 12 hours light/12 hours darkness in a climate cabinet and the activity of a compound was assessed as percent disease control compared to untreated when an appropriate level of disease damage appears in untreated check leaf segments (6 to 8 days after application). The following compounds at 200 ppm in the applied formulation give at least 80% disease control in this test when compared to untreated control leaf disks under the same conditions, which show extensive disease development.

[3] = tested on: Puccinia recondita f. Sp. Tritici; assay: Fungicidal activity against Puccinia recondita f. sp. tritici / wheat / leaf disc preventative (brown rust); assay type: in vivo; settings: foliar, 200 ppm in the applied formulation, wheat leaf segments cv. Kanzler, preventative (inoculated 1 day after application), compared to untreated, read-out: disease control
Description: Leaf disks or leaf segments of various plant species are cut from plants grown in a greenhouse. The cut leaf disks or segments are placed in multiwell plates (24-well format) onto water agar. The leaf disks are sprayed with a test solution before (preventative) or after (curative) inoculation. Compounds to be tested are prepared as DMSO solutions (max. 10 mg/mL) which are diluted to the appropriate concentration with 0.025% Tween20 just before spraying. The inoculated leaf disks or segments are incubated under defined conditions (temperature, relative humidity, light, etc.) according to the respective test system. A single evaluation of disease level is carried out 3 to 14 days after inoculation, depending on the pathosystem. Percent disease control relative to the untreated check leaf disks or segments is then calculated. Wheat leaf segments cv. Kanzler were placed on agar in multiwell plates (24-well format) and sprayed with the formulated test compound diluted in water. The leaf disks were inoculated with a spore suspension of the fungus 1 day after application. The inoculated leaf segments were incubated at 19° C. and 75% relative humidity (rh) under a light regime of 12 hours light/12 hours darkness in a climate cabinet and the activity of a compound was assessed as percent disease control compared to untreated when an appropriate level of disease damage appears in untreated check leaf segments (7 to 9 days after application). The following compounds at 200 ppm in the applied formulation give at least 80% disease control in this test when compared to untreated control leaf disks under the same conditions, which show extensive disease development.

Row | Structure (SMILES) | inhibition of growth at 20 ppm [1] [%] | pest or weed control at 200 ppm [2] [%] | pest or weed control at 200 ppm [3] [%]
1 | CCN(C)C(=O)c1ccnn1Cc1ccc(-c2noc(C(F)(F)F)n2)s1 [Compound 1.169, N-ethyl-N-methyl-2-[[5-[5-(trifluoromethyl)-1,2,4-oxadiazol-3-yl]-2-thienyl]methyl]pyrazole-3-carboxamide] | ≥ 80 | ≥ 80 | ≥ 80
2 | FC(F)(F)c1nc(-c2ccc(Cn3cncn3)s2)no1 [Compound 1.2, 3-[5-(1,2,4-triazol-1-ylmethyl)-2-thienyl]-5-(trifluoromethyl)-1,2,4-oxadiazole] | ≥ 80 | ≥ 80 | ≥ 80
3 | C=CCNC(=O)c1cnn(C(C)c2ccc(-c3noc(C(F)(F)F)n3)s2)c1 (stereo not drawn) [Compound 1.73, N-allyl-1-[1-[5-[5-(trifluoromethyl)-1,2,4-oxadiazol-3-yl]-2-thienyl]ethyl]pyrazole-4-carboxamide] | ≥ 80 | ≥ 80 | ≥ 80
4 | O=[N+]([O-])c1cnn(Cc2ccc(-c3noc(C(F)(F)F)n3)s2)c1 [Compound 1.9, 3-[5-[(4-nitropyrazol-1-yl)methyl]-2-thienyl]-5-(trifluoromethyl)-1,2,4-oxadiazole] | ≥ 80 | ≥ 80 | ≥ 80
5 | O=C(Nc1ccccc1)c1ccn(Cc2ccc(-c3noc(C(F)(F)F)n3)s2)n1 [Compound 1.130, N-phenyl-1-[[5-[5-(trifluoromethyl)-1,2,4-oxadiazol-3-yl]-2-thienyl]methyl]pyrazole-3-carboxamide] | ≥ 80 | ≥ 80 | ≥ 80
6 | CON(C)C(=O)c1cnn(C(C)c2ccc(-c3noc(C(F)(F)F)n3)s2)c1 (stereo not drawn) [Compound 1.68, N-methoxy-N-methyl-1-[1-[5-[5-(trifluoromethyl)-1,2,4-oxadiazol-3-yl]-2-thienyl]ethyl]pyrazole-4-carboxamide] | ≥ 80 | ≥ 80 | ≥ 80
7 | CCN(CC)C(=O)c1ccnn1Cc1ccc(-c2noc(C(F)(F)F)n2)s1 [Compound 1.161, N,N-diethyl-2-[[5-[5-(trifluoromethyl)-1,2,4-oxadiazol-3-yl]-2-thienyl]methyl]pyrazole-3-carboxamide] | ≥ 80 | ≥ 80 | ≥ 80
8 | CNC(=O)c1cnn(C(C)c2ccc(-c3noc(C(F)(F)F)n3)s2)c1 (stereo not drawn) [Compound 1.70, N-methyl-1-[1-[5-[5-(trifluoromethyl)-1,2,4-oxadiazol-3-yl]-2-thienyl]ethyl]pyrazole-4-carboxamide] | ≥ 80 | ≥ 80 | ≥ 80
9 | CC(c1ccc(-c2noc(C(F)(F)F)n2)s1)n1cc(C(=O)NCc2ccco2)cn1 (stereo not drawn) [Compound 1.85, N-(2-furylmethyl)-1-[1-[5-[5-(trifluoromethyl)-1,2,4-oxadiazol-3-yl]-2-thienyl]ethyl]pyrazole-4-carboxamide] | ≥ 80 | ≥ 80 | ≥ 80
10 | C=CCNC(=O)c1ncn(Cc2ccc(-c3noc(C(F)(F)F)n3)s2)n1 [Compound 1.151, N-allyl-1-[[5-[5-(trifluoromethyl)-1,2,4-oxadiazol-3-yl]-2-thienyl]methyl]-1,2,4-triazole-3-carboxamide] | ≥ 80 | ≥ 80 | ≥ 80
11 | CONC(=O)c1cnn(C(C)c2ccc(-c3noc(C(F)(F)F)n3)s2)c1 (stereo not drawn) [Compound 1.82, N-methoxy-1-[1-[5-[5-(trifluoromethyl)-1,2,4-oxadiazol-3-yl]-2-thienyl]ethyl]pyrazole-4-carboxamide] | ≥ 80 | ≥ 80 | ≥ 80
12 | CC(c1ccc(-c2noc(C(F)(F)F)n2)s1)n1cc(C(=O)NCC(C)(C)C)cn1 (stereo not drawn) [Compound 1.66, N-(2,2-dimethylpropyl)-1-[1-[5-[5-(trifluoromethyl)-1,2,4-oxadiazol-3-yl]-2-thienyl]ethyl]pyrazole-4-carboxamide] | ≥ 80 | ≥ 80 | ≥ 80
13 | CC(c1ccc(-c2noc(C(F)(F)F)n2)s1)n1cc(C(=O)NC2CCC2)cn1 (stereo not drawn) [Compound 1.79, N-cyclobutyl-1-[1-[5-[5-(trifluoromethyl)-1,2,4-oxadiazol-3-yl]-2-thienyl]ethyl]pyrazole-4-carboxamide] | ≥ 80 | ≥ 80 | ≥ 80
14 | CON(C)C(=O)c1cnn(Cc2ccc(-c3noc(C(F)(F)F)n3)s2)c1 [Compound 1.103, N-methoxy-N-methyl-1-[[5-[5-(trifluoromethyl)-1,2,4-oxadiazol-3-yl]-2-thienyl]methyl]pyrazole-4-carboxamide] | ≥ 80 | ≥ 80 | ≥ 80
15 | CC(C)CNC(=O)c1ccnn1Cc1ccc(-c2noc(C(F)(F)F)n2)s1 [Compound 1.160, N-isobutyl-2-[[5-[5-(trifluoromethyl)-1,2,4-oxadiazol-3-yl]-2-thienyl]methyl]pyrazole-3-carboxamide] | ≥ 80 | ≥ 80 | ≥ 80
16 | CC(C)NC(=O)c1cnn(Cc2ccc(-c3noc(C(F)(F)F)n3)s2)c1 [Compound 1.102, N-isopropyl-1-[[5-[5-(trifluoromethyl)-1,2,4-oxadiazol-3-yl]-2-thienyl]methyl]pyrazole-4-carboxamide] | ≥ 80 | ≥ 80 | ≥ 80
17 | O=Cc1cnn(Cc2ccc(-c3noc(C(F)(F)F)n3)s2)c1 [Compound 1.22, 1-[[5-[5-(trifluoromethyl)-1,2,4-oxadiazol-3-yl]-2-thienyl]methyl]pyrazole-4-carbaldehyde] | ≥ 80 | ≥ 80 | ≥ 80
18 | CNC(=O)c1nccn1Cc1ccc(-c2noc(C(F)(F)F)n2)s1 [Compound 1.176, N-methyl-1-[[5-[5-(trifluoromethyl)-1,2,4-oxadiazol-3-yl]-2-thienyl]methyl]imidazole-2-carboxamide] |  | ≥ 80 | ≥ 80
19 | O=C(NC1CC1)c1nccn1Cc1ccc(-c2noc(C(F)(F)F)n2)s1 [Compound 1.177, N-cyclopropyl-1-[[5-[5-(trifluoromethyl)-1,2,4-oxadiazol-3-yl]-2-thienyl]methyl]imidazole-2-carboxamide] |  | ≥ 80 | ≥ 80
20 | CCN(CC)C(=O)c1cnn(Cc2ccc(-c3noc(C(F)(F)F)n3)s2)c1 [Compound 1.113, N,N-diethyl-1-[[5-[5-(trifluoromethyl)-1,2,4-oxadiazol-3-yl]-2-thienyl]methyl]pyrazole-4-carboxamide] |  | ≥ 80 | ≥ 80
